Measured values taken from DBAASP.
In brackets after ≈: the same amount, converted by molar mass. Blank lines part the entries; values can stand above or below the molecule they belong to.

How the values were obtained:
Test in all cases: ≥ marks a high value that may be exact or a test limit, other limits are often not marked, values filed in µg/mL are converted to µM
[1] = system: Acinetobacter baumannii
[2] = system: Escherichia coli ATCC 25922
[3] = system: Klebsiella pneumoniae ATCC 700603
[4] = system: Pseudomonas aeruginosa ATCC 9027
[5] = system: Staphylococcus aureus ATCC 25923
[6] = system: Acinetobacter baumannii ATCC 19606
[7] = system: Bacillus cereus
[8] = system: Escherichia coli
[9] = system: Escherichia coli UB1005
[10] = system: Pseudomonas aeruginosa
[11] = system: Salmonella enterica subsp. enterica serovar Typhimurium C77-31
[12] = system: Staphylococcus aureus ATCC 29213
[13] = system: Staphylococcus aureus
[14] = system: Staphylococcus epidermidis ATCC 12228
[15] = system: Bacillus subtilis
[16] = system: Candida albicans ATCC 2002
[17] = system: Enterococcus faecalis ATCC 29212
[18] = system: Staphylococcus aureus ATCC 6538

Compound: CSCC[C@H](NC(=O)[C@H](CC(C)C)NC(=O)[C@H](CCCCN)NC(=O)CNC(=O)[C@H](C)NC(=O)[C@H](C)NC(=O)[C@H](CCCN=C(N)N)NC(=O)[C@H](Cc1ccccc1)NC(=O)[C@H](CC(C)C)NC(=O)[C@@H](NC(=O)[C@H](Cc1c[nH]c2ccccc12)NC(=O)[C@@H](NC(=O)[C@@H](N)CCCCN)C(C)C)[C@@H](C)O)C(=O)N[C@@H](C)C(=O)N[C@@H](CCCCN)C(N)=O [KVWTLFRAAGKLMAK]
- MIC [1]: 25 µM (≈ 43 µg/mL)
- MIC [2]: > 25 µM
- MIC [3]: > 25 µM
- MIC [4]: > 25 µM
- MIC [5]: > 25 µM

Compound: CC[C@H](C)[C@H](NC(=O)[C@H](CCCN=C(N)N)NC(=O)[C@@H](NC(=O)[C@@H](NC(=O)[C@@H]1CCCN1C(=O)[C@@H](NC(=O)[C@@H](NC(=O)[C@@H](NC(=O)[C@@H]1CCCN1C(=O)CNC(=O)[C@H](Cc1ccc(O)cc1)NC(=O)[C@H](CCCCN)NC(=O)[C@H](CCCCN)NC(=O)[C@H](Cc1c[nH]c2ccccc12)NC(=O)[C@H](C)NC(=O)[C@H](CCCN=C(N)N)NC(=O)[C@H](CC(C)C)NC(=O)[C@@H](NC(=O)[C@H](CCCCN)NC(=O)[C@H](CCCN=C(N)N)NC(=O)CNC(=O)[C@H](CC(C)C)NC(=O)[C@H](CCCCN)NC(=O)[C@H](CCCN=C(N)N)NC(=O)[C@H](CC(C)C)NC(=O)CNC(=O)CN)[C@@H](C)CC)[C@@H](C)CC)[C@@H](C)CC)C(C)C)[C@@H](C)CC)[C@@H](C)CC)C(=O)O [GGLRKLGRKILRAWKKYGPIIVPIIRI]
- MIC [6]: 3.21 µM (≈ 10 µg/mL)
- MIC [1]: 6.42 µM (≈ 20 µg/mL)

Compound: CC(C)[C@H](NC(=O)[C@H](CCCN=C(N)N)NC(=O)[C@H](Cc1c[nH]c2ccccc12)NC(=O)[C@H](CCCN=C(N)N)NC(=O)[C@@H](NC(=O)[C@H](CCCN=C(N)N)NC(=O)[C@H](Cc1c[nH]c2ccccc12)NC(=O)[C@H](CCCN=C(N)N)NC(=O)[C@@H](NC(=O)[C@H](CCCN=C(N)N)NC(=O)[C@@H](N)Cc1c[nH]c2ccccc12)C(C)C)C(C)C)C(=O)N[C@@H](CCCN=C(N)N)C(N)=O [WRVRWRVRWRVR]
- MIC [1]: 2 µM (≈ 3.62 µg/mL)
- MIC [2]: 4 µM (≈ 7.24 µg/mL)
- MIC [9]: 2 µM (≈ 3.62 µg/mL)
- MIC [8]: 2 µM (≈ 3.62 µg/mL)
- MIC [10]: 4 µM (≈ 7.24 µg/mL)
- MIC [11]: 4 µM (≈ 7.24 µg/mL)
- MIC [5]: 2 µM (≈ 3.62 µg/mL)
- MIC [12]: 1 µM (≈ 1.81 µg/mL)
- MIC [13]: 1 µM (≈ 1.81 µg/mL)
- MIC [14]: 2 µM (≈ 3.62 µg/mL)

Compound: CC[C@H](C)[C@H](NC(=O)[C@H](CCCCN)NC(=O)[C@H](CCCCN)NC(=O)[C@H](CC(C)C)NC(=O)[C@H](CCCN=C(N)N)NC(=O)[C@@H]1CSSC[C@H](NC(=O)[C@H](CCCN=C(N)N)NC(=O)[C@H](CC(C)C)NC(=O)[C@H](CCCN=C(N)N)NC(=O)[C@H](CCCN=C(N)N)NC(=O)[C@H](Cc2ccccc2)NC(=O)[C@@H](N)CCCN=C(N)N)C(=O)N[C@@H](CCCCN)C(=O)N[C@@H]([C@@H](C)O)C(=O)N[C@@H](CCCN=C(N)N)C(=O)N1)C(N)=O [RFRRLRCKTRCRLKKI]
- MIC [17]: > 128 µM
- MIC [9]: ≥ 128 µM
- MIC [11]: ≥ 128 µM
- MIC [12]: > 128 µM
- MIC [14]: > 128 µM

Compound: CC(C)C[C@H](NC(=O)[C@H](C)NC(=O)[C@H](CCCCN)NC(=O)[C@H](CCCCN)NC(=O)[C@H](Cc1ccccc1)NC(=O)[C@H](C)NC(=O)[C@H](CCCCN)NC(=O)[C@H](C)NC(=O)[C@H](CC(C)C)NC(=O)[C@H](CC(C)C)NC(=O)[C@H](CCCCN)NC(=O)[C@H](C)NC(=O)[C@@H](N)Cc1ccccc1)C(N)=O [FAKLLAKAFKKAL]
- MIC [4]: 10.4 µM (≈ 15 µg/mL)
- MIC [18]: 34.5 µM (≈ 50 µg/mL)

Compound: CC[C@H](C)[C@H](NC(=O)CNC(=O)[C@H](CC(C)C)NC(=O)[C@H](CCCCN)NC(=O)[C@H](C)NC(=O)[C@H](CC(C)C)NC(=O)[C@H](C)NC(=O)[C@@H](NC(=O)[C@H](CCCCN)NC(=O)[C@H](C)NC(=O)[C@@H](NC(=O)[C@@H](N)CCCCN)[C@@H](C)CC)C(C)C)C(=O)NCC(=O)N[C@@H](C)C(=O)N[C@H](C(=O)N[C@@H](CC(C)C)C(=O)N[C@@H](CCCCN)C(=O)N[C@H](C(=O)N[C@@H](CC(C)C)C(=O)N[C@H](C(=O)N[C@H](C(=O)NCC(=O)N[C@@H](CC(C)C)C(N)=O)[C@@H](C)O)[C@@H](C)O)C(C)C)C(C)C [KIAKVALAKLGIGAVLKVLTTGL]
- MIC [4]: 87.8 µM (≈ 200 µg/mL)
- MIC [18]: 87.8 µM (≈ 200 µg/mL)

Compound: CC[C@H](C)[C@H](NC(=O)[C@H](Cc1c[nH]c2ccccc12)NC(=O)[C@H](CCCCN)NC(=O)[C@H](CC(C)C)NC(=O)[C@@H](NC(=O)[C@H](CCCCN)NC(=O)CNC(=O)[C@@H](NC(=O)[C@@H](NC(=O)[C@H](CCCCN)NC(=O)[C@H](CC(C)C)NC(=O)[C@@H](NC(=O)[C@@H](NC(=O)[C@H](CCCN=C(N)N)NC(=O)[C@@H](NC(=O)[C@@H](NC(=O)[C@H](CCCCN)NC(=O)[C@H](CCCN=C(N)N)NC(=O)[C@H](CC(C)C)NC(=O)[C@@H](NC(=O)[C@H](CCCN=C(N)N)NC(=O)[C@H](Cc1ccccc1)NC(=O)[C@@H](NC(=O)CN)C(C)C)C(C)C)C(C)C)[C@@H](C)O)C(C)C)C(C)C)C(C)C)[C@@H](C)CC)C(C)C)C(N)=O [GVFRVLRKVTRVVLKVIGKVLKWI]
- MIC [2]: 2 µM (≈ 5.61 µg/mL)
- MIC [9]: 4 µM (≈ 11.2 µg/mL)
- MIC [11]: 4 µM (≈ 11.2 µg/mL)
- MIC [5]: 2 µM (≈ 5.61 µg/mL)
- MIC [12]: 2 µM (≈ 5.61 µg/mL)
- MIC [14]: 2 µM (≈ 5.61 µg/mL)

The next lines start with the values.

- MIC [7]: ≥ 124 µM
- MIC [8]: 124 µM (≈ 256 µg/mL)
Compound: CC[C@H](C)[C@H](NC(=O)[C@H](CC(=O)O)NC(=O)[C@H](CCCCN)NC(=O)[C@@H](NC(=O)[C@H](CC(C)C)NC(=O)[C@H](CO)NC(=O)[C@H](CCSC)NC(=O)[C@H](CC(C)C)NC(=O)CN)C(C)C)C(=O)N[C@@H](C)C(=O)N[C@@H](CCCCN)C(=O)N[C@@H](CC(C)C)C(=O)N[C@@H](C)C(=O)N[C@@H](C)C(=O)N[C@@H](CCCCN)C(=O)N[C@@H](CCC(N)=O)C(=O)NCC(=O)N[C@@H](C)C(=O)N[C@@H](CCCCN)C(=O)N[C@@H](CCC(N)=O)C(=O)O [GLMSLVKDIAKLAAKQGAKQ]

- MIC [7]: ≥ 125 µM
- MIC [8]: 125 µM (≈ 256 µg/mL)
Compound: CC(C)C[C@H](NC(=O)CNC(=O)[C@H](Cc1ccccc1)NC(=O)[C@H](CC(C)C)NC(=O)[C@H](C)NC(=O)CN)C(=O)N[C@@H](C)C(=O)N[C@@H](CO)C(=O)N[C@@H](CCCCN)C(=O)N[C@H](C(=O)N[C@@H](Cc1ccccc1)C(=O)N1CCC[C@H]1C(=O)N[C@@H](C)C(=O)N[C@H](C(=O)N[C@@H](Cc1ccccc1)C(=O)NCC(=O)N[C@@H](C)C(=O)N[C@@H](Cc1ccccc1)C(=O)N[C@@H](CCCCN)C(=O)N[C@@H](CCCCN)C(=O)O)C(C)C)C(C)C [GALFGLASKVFPAVFGAFKK]

- MIC [15]: 1.34 µM (≈ 3.52 µg/mL)
- MIC [16]: 0.335 µM (≈ 0.879 µg/mL)
- MIC [2]: 10.7 µM (≈ 28.1 µg/mL)
- MIC [5]: 0.447 µM (≈ 1.17 µg/mL)
Compound: CC[C@H](C)[C@H](NC(=O)[C@H](C)NC(=O)[C@H](CCCN=C(N)N)NC(=O)[C@H](Cc1ccc(O)cc1)NC(=O)[C@H](CC(C)C)NC(=O)[C@H](CC(N)=O)NC(=O)[C@H](Cc1ccc(O)cc1)NC(=O)CNC(=O)[C@H](C)NC(=O)[C@@H](NC(=O)[C@@H](NC(=O)[C@@H](NC(=O)[C@H](CCCN=C(N)N)NC(=O)[C@@H](NC(=O)[C@@H](NC(=O)[C@@H](NC(=O)[C@@H]1CCCN1C(=O)[C@H](Cc1c[nH]c2ccccc12)NC(=O)[C@@H](N)Cc1ccccc1)C(C)C)C(C)C)[C@@H](C)CC)[C@@H](C)O)C(C)C)C(C)C)C(=O)N[C@@H](CCCCN)C(=O)N[C@@H](CCCCN)C(=O)N[C@@H](CCCCN)C(=O)O [FWPVVIRTVVAGYNLYRAIKKK]

- MIC [1]: ≥ 32 µM
- MIC [2]: 64 µM (≈ 113 µg/mL)
- MIC [3]: 64 µM (≈ 113 µg/mL)
- MIC [4]: 64 µM (≈ 113 µg/mL)
- MIC [5]: 64 µM (≈ 113 µg/mL)
Compound: CC[C@H](C)[C@H](N)C(=O)N[C@H](C(=O)N[C@@H](CCCCN)C(=O)N[C@@H](Cc1c[nH]c2ccccc12)C(=O)N[C@@H](CC(C)C)C(=O)N[C@@H](CC(C)C)C(=O)N[C@@H](CC(N)=O)C(=O)N[C@@H](C)C(=O)N[C@H](C(=O)N[C@@H](CCCCN)C(=O)N[C@@H](CCCCN)C(=O)NCC(=O)N[C@@H](Cc1ccccc1)C(=O)N[C@@H](CCCCN)C(=O)N[C@@H](CC(C)C)C(=O)O)[C@@H](C)CC)[C@@H](C)O [ITKWLLNAIKKGFKL]

- MIC [7]: ≥ 119 µM
- MIC [8]: 59.5 µM (≈ 128 µg/mL)
Compound: CC[C@H](C)[C@H](NC(=O)[C@@H](NC(=O)[C@H](CS)NC(=O)[C@H](Cc1ccc(O)cc1)NC(=O)[C@@H](NC(=O)[C@H](C)NC(=O)[C@@H]1CCCN1C(=O)[C@H](Cc1ccccc1)NC(=O)[C@@H](NC(=O)[C@H](CCCCN)NC(=O)[C@H](CO)NC(=O)[C@H](C)NC(=O)[C@H](CC(C)C)NC(=O)[C@H](CCCCN)NC(=O)CNC(=O)[C@H](CC(C)C)NC(=O)[C@H](C)N)C(C)C)C(C)C)[C@@H](C)O)C(=O)N[C@@H](CO)C(=O)N[C@@H](CCCN=C(N)N)C(=O)N[C@@H](CCCCN)C(=O)O [ALGKLASKVFPAVYCTISRK]
